Data: patent publication US10125078B1, “NSAID derivatives of omega-3 polyunsaturated acids as gamma secretase modulators” (Jiva Pharma, Inc., priority 2015, dated 2018)
Values joined by “and” are separate entries in the source; they are usually repeats but may differ in a detail not shown here. Equal entries are not always repeated. Where two headings read alike, the source gives them in different places.

Target: T1, gamma-secretase (Homo sapiens, UniProt P49768)
T1 construct: Fresh human neuroblastoma cells SHSY-5 were purchased from ATCC; host or cells: SH-SY5Y human neuroblastoma cells, untransfected
Experiment: gamma-secretase modulating activity in cell cultures of human neuroblastoma SHSY-5 cells, intracellular Aβ x-40 by ELISA
Assay type: cell-based
Conditions: for experiment 1 / experiment 2 / experiment 3: Aβ ELISA signal, 0 nM about 100; for bestfit2 / bestfit3 / bestfit1: fitted curve; for IC50: read-out: calculated IC50
Experimental: The gamma-secretase modulating activity of Jiva compounds were determined in Cell Cultures of fresh human neuroblastoma SHSY-5 cells. The enzyme-linked immunosorbent assay (ELISA) is one of the most commonly used, reliable, and sensitive methods for quantitating the A β peptides. The detailed methods for the recovery of both soluble and deposited A β from brain tissue and the subsequent quantitation of the peptides by ELISA are thoroughly described in literature such as Stephen D. Schmidt, et al., “Amyloid, Enzyme-linked immunosorbent assay, ELISA, Extraction, Quantification”, Methods in Molecular Biology, vol. 849, DOI 10.1007/978-1-61779-551-0_34, Springer Science+Business Media, LLC 2012; Zeljko M. Svedruzic, et al., “Modulators of γ-Secretase Activity Can Facilitate the Toxic Side-Effects and Pathogenesis of Alzheimer's Disease”, PLOS ONE, 1 Jan. 2013|Volume 8|Issue 1; Catherine R. Burton et al., “The Amyloid-β Rise and γ-Secretase Inhibitor Potency Depend on the Level of Substrate Expression” Aug. 22, 2008 The Journal of Biological Chemistry 283, 22992-23003.
The well-studied γ-secretase inhibitor, semagacestat (WIKI) was used as a positive control in the above assays.
The following are procedures used for screening gamma-secretase modulating activity of Jiva compounds in cell cultures.
Protocol for Growing SHSY-5 Cells:
Fresh human neuroblastoma cells SHSY-5 were purchased from ATCC in the […]. All SHSY-5 cells were propagated and grown in p75 flasks, following the supplier's instructions. Briefly, SH-SY5Y cells were grown to confluence in Dulbecco's Modified Eagles Medium (DMEM) supplemented with 2 mM L-glutamine, 1× nonessential amino acids, and 0.22 micrometers filtered 10% heat inactivated fetal bovine serum (FBS) in a 5% CO2 humidified incubator at 37° C. Cultures were split twice a week and cells were seeded at 2.5×10^4 cells/cm^2. The cells were detached from the bottles after two phosphate buffer washes that were followed by 5 min treatment with 0.25% trypsine solution.
Protocol for Preparation of Jiva Compounds and the Initial Screening:
Jiva compounds were dissolved under sterile conditions in different volumes of molecular biology grade dimethylsulfoxide (DMSO) so that the final concentration was 200 mM, with the goal to screen in a concentration range from 50 to 1000 μM. Thus, between 1 μL to 20 µL of DMSO solution of each Jiva compound was added to 4 mL of sterile cell media with FBS adjusted to 1%. The cells were incubated with different compounds for 18 h (i.e. overnight). Following the incubation cells were tested for viability and morphology. The first viability criteria was attachment to the surface, the second viability criteria was resistance to trypan blue uptake. Only viable cells were harvested for ELISA screening.
Confluent cells were scraped from p25 cell-culture bottles and collected in pellets by centrifugation for 5 mins at 1000 g. To measure intracellular amyloid β, the centrifugation helps in concentrating Aβ1-40 peptides for measurements. About 40 micro grams of cell can be recovered from 4 mL cell medium in p25 cell culture bottles. The cell pellets were re-suspended in RIPA buffer and incubated on ice for 30 min.
RIPA buffer means 150 mM sodium chloride; 1% NP-40; 0.5% sodium deoxycholate; 0.1% SDS; 50 mM Tris pH 8.0.
Following lysis, the cell debris was separated by centrifugation, 1 h at 40,000×g. The clear supernatant was collected for ELISA measurements that followed immediately after the centrifugation.
ELISA measurements used IBL ELISA kits for Aβ x-40 using manufacturer's protocol and supplied standards. Briefly, for each measurement 100 μL sample was prepared from 12.5 μL lysis buffer and 87.5 μL ASSAYBUF solutions in each well. ASSAYBUF solution were supplied in the kit, and used to incubate cell lysate with anti-amyloid antibody attached to the wells in ELISA plates. The plate covered with plate-lid was incubated with gentle shaking overnight at 4° C. […]

[1] = 100000.0 nM, listed as JIVA002B
[2] = 1000000.0 nM, listed as JIVA002B

Question: For `CC/C=C\C/C=C\C/C=C\C/C=C\C/C=C\CCCCC(C(=O)O)C1CC1` (racemic) [JIVA 28, EPA Cyclopropyl-acetic acid-fibrate], which “experiment 1” value (21.4 nM) is on record?
Answer: 101

Question: What about the “experiment 2” value (21.4 nM) of the same compound?
Answer: 103

Question: And the “experiment 3” value (21.4 nM)?
Answer: 104

Question: And the bestfit2 (21.4 nM)?
Answer: 100.0

Question: And the bestfit3 (21.4 nM)?
Answer: 100.0

Question: What about the bestfit1 (21.4 nM, listed as JIVA002B) of the same compound?
Answer: 100.0 and 99.9

Question: What about the “experiment 1” value (74.1 nM) of the same compound?
Answer: 98

Question: What about the “experiment 2” value (74.1 nM) of the same compound?
Answer: 102

Question: And the “experiment 3” value (74.1 nM)?
Answer: 108

Question: What about the bestfit2 (74.1 nM) of the same compound?
Answer: 99.9

Question: What about the bestfit1 (74.1 nM, listed as JIVA002B) of the same compound?
Answer: 99.8 and 99.7

Question: What about the bestfit3 (74.1 nM, listed as JIVA002B) of the same compound?
Answer: 99.9 and 99.8

Question: What about the “experiment 1” value (100.0 nM) of the same compound?
Answer: 102

Question: And the “experiment 2” value (100.0 nM)?
Answer: 99

Question: What about the “experiment 3” value (100.0 nM) of the same compound?
Answer: 97

Question: What about the bestfit1 (100.0 nM, listed as JIVA002B) of the same compound?
Answer: 99.8 and 99.6

Question: What about the bestfit2 (100.0 nM, listed as JIVA002B) of the same compound?
Answer: 99.9 and 99.6

Question: And the bestfit3 (100.0 nM, listed as JIVA002B)?
Answer: 99.9 and 99.5

Question: And the “experiment 1” value (213.8 nM)?
Answer: 101

Question: What about the “experiment 2” value (213.8 nM) of the same compound?
Answer: 95

Question: And the “experiment 3” value (213.8 nM)?
Answer: 100

Question: And the bestfit1 (213.8 nM, listed as JIVA002B)?
Answer: 99.5 and 99.1

Question: And the bestfit2 (213.8 nM, listed as JIVA002B)?
Answer: 99.7 and 99.6

Question: And the bestfit3 (213.8 nM, listed as JIVA002B)?
Answer: 99.7 and 99.5

Question: What about the “experiment 1” value (741.3 nM) of the same compound?
Answer: 97

Question: And the “experiment 2” value (741.3 nM)?
Answer: 100

Question: And the “experiment 3” value (741.3 nM)?
Answer: 94

Question: And the bestfit1 (741.3 nM, listed as JIVA002B)?
Answer: 98.5 and 97.0

Question: And the bestfit2 (741.3 nM, listed as JIVA002B)?
Answer: 99.1 and 98.6

Question: What about the bestfit3 (741.3 nM, listed as JIVA002B) of the same compound?
Answer: 99.0 and 98.3

Question: What about the “experiment 2” value (1000.0 nM) of the same compound?
Answer: 101

Question: And the “experiment 3” value (1000.0 nM)?
Answer: 104

Question: And the “experiment 1” value (1000.0 nM, listed as JIVA002B)?
Answer: 96 and 95

Question: What about the bestfit1 (1000.0 nM, listed as JIVA002B) of the same compound?
Answer: 97.8 and 96.0

Question: And the bestfit2 (1000.0 nM, listed as JIVA002B)?
Answer: 99.8 and 98.2

Question: What about the bestfit3 (1000.0 nM, listed as JIVA002B) of the same compound?
Answer: 98.6 and 97.8

Question: What about the “experiment 1” value (2138.0 nM) of the same compound?
Answer: 90

Question: And the “experiment 2” value (2138.0 nM)?
Answer: 98

Question: And the “experiment 3” value (2138.0 nM)?
Answer: 90

Question: What about the bestfit2 (2138.0 nM, listed as JIVA002B) of the same compound?
Answer: 97.5 and 96.2

Question: And the bestfit3 (2138.0 nM, listed as JIVA002B)?
Answer: 97.1 and 95.4

Question: What about the “experiment 2” value (7413.1 nM) of the same compound?
Answer: 85

Question: What about the “experiment 1” value (7413.1 nM, listed as JIVA002B) of the same compound?
Answer: 90 and 75

Question: And the “experiment 3” value (7413.1 nM, listed as JIVA002B)?
Answer: 96 and 79

Question: And the bestfit1 (7413.1 nM, listed as JIVA002B)?
Answer: 85.6 and 76.4

Question: What about the bestfit2 (7413.1 nM, listed as JIVA002B) of the same compound?
Answer: 91.9 and 87.9

Question: And the bestfit3 (7413.1 nM, listed as JIVA002B)?
Answer: 90.5 and 85.6

Question: And the “experiment 2” value (10000.0 nM)?
Answer: 85

Question: And the “experiment 1” value (10000.0 nM, listed as JIVA002B)?
Answer: 88 and 71

Question: What about the bestfit1 (10000.0 nM, listed as JIVA002B) of the same compound?
Answer: 81.5 and 70.6

Question: What about the bestfit2 (10000.0 nM, listed as JIVA002B) of the same compound?
Answer: 89.4 and 84.4

Question: What about the bestfit3 (10000.0 nM, listed as JIVA002B) of the same compound?
Answer: 87.7 and 81.5

Question: What about the “experiment 1” value (21379.5 nM, listed as JIVA002B) of the same compound?
Answer: 73 and 58

Question: What about the “experiment 2” value (21379.5 nM, listed as JIVA002B) of the same compound?
Answer: 73 and 62

Question: And the “experiment 3” value (21379.5 nM, listed as JIVA002B)?
Answer: 79 and 64

Question: What about the bestfit1 (21379.5 nM, listed as JIVA002B) of the same compound?
Answer: 57.3 and 52.9

Question: What about the bestfit2 (21379.5 nM, listed as JIVA002B) of the same compound?
Answer: 79.7 and 71.6

Question: And the bestfit3 (21379.5 nM, listed as JIVA002B)?
Answer: 76.9 and 67.3

Question: What about the “experiment 2” value (74131.0 nM) of the same compound?
Answer: 46

Question: What about the “experiment 1” value (74131.0 nM, listed as JIVA002B) of the same compound?
Answer: 28 and 18

Question: What about the “experiment 3” value (74131.0 nM, listed as JIVA002B) of the same compound?
Answer: 57 and 33

Question: And the bestfit2 (74131.0 nM, listed as JIVA002B)?
Answer: 53.1 and 42.1

Question: What about the bestfit3 (74131.0 nM, listed as JIVA002B) of the same compound?
Answer: 48.9 and 37.2

Question: And the “experiment 1” value [1]?
Answer: 26 and 13

Question: What about the “experiment 2” value [1] of the same compound?
Answer: 49 and 33

Question: And the “experiment 3” value [1]?
Answer: 46 and 27

Question: And the bestfit2 [1]?
Answer: 45.7 and 35.1

Question: And the bestfit3 [1]?
Answer: 41.5 and 30.5

Question: What about the “experiment 1” value (1000000.0 nM) of the same compound?
Answer: 2

Question: And the “experiment 2” value (1000000.0 nM)?
Answer: 8

Question: What about the “experiment 3” value (1000000.0 nM) of the same compound?
Answer: 2

Question: And the bestfit1 [2]?
Answer: 4.2 and 2.3

Question: What about the bestfit2 [2] of the same compound?
Answer: 7.7 and 5.1

Question: And the bestfit3 [2]?
Answer: 6.6 and 4.2

Question: What about the average signal triplicates (20 microM, cells incubated 18 h, ELISA OD 450 nm) of the same compound?
Answer: 0.162

Question: And the “signal nomalised to cells” value (20 microM, normalised to collected cell mass)?
Answer: 0.034

Question: And the sign-bkgr (20 microM, signal minus background)?
Answer: 0.042

Question: And the IC50 (first, experiment 1)?
Answer: 44 µM and 24 µM

Question: What about the IC50 (second, experiment 2) of the same compound?
Answer: 84 µM and 54 µM

Question: And the IC50 (third, experiment 3)?
Answer: 71 µM and 44 µM
